Test results taken from patent publication US20240245709A1, “[…] USE IN TREATMENT OF E[…] EPILEPTICUS” (MARINUS PHARMACEUTICALS, INC., priority 2021, published 2024).

Key:
[1] = human plasma, oral administration; cited from earlier work
[2] = Solubility of ganaxolone in solvents; type: physicochemical
Description: (§1) Ganaxolone is insoluble in water. […] 3.5 mg/mL, and 3.1 mg/mL, respectively. Ganaxolone has a relatively long half-life—approximately 20 hours in human plasma following oral administration (Nohria, V. and Giller, E., Neurotherapeutics, (2007) 4(1): 102-105). Furthermore, ganaxolone has a short Tmax, which means that therapeutic blood levels are reached quickly.
Ganaxolone formulations suitable for parenteral administration in the methods of the present invention may comprise physiologically acceptable sterile aqueous or non-aqueous solutions, dispersions, suspensions or emulsions, and sterile powders for reconstitution into sterile injectable solutions or dispersions. Examples of suitable aqueous and non-aqueous carriers, diluents, solvents, or vehicles including water, ethanol, polyols (propylene glycol, polyethylene-glycol, glycerol, cremophor and the like), suitable mixtures thereof, vegetable oils (such as olive oil) and injectable organic esters such as ethyl oleate. Additionally, ganaxolone can be dissolved at concentrations of >1 mg/ml using water soluble beta cyclodextrins (e.g. beta-sulfobutyl-cyclodextrin and 2-hydroxypropylbetacyclodextrin). A particularly suitable cyclodextrin is a substituted-β-cyclodextrin is Captisol®. […]

progesterone receptor = biological target: T1, progesterone receptor (Homo sapiens, UniProt P06401); assay: Progesterone receptor activation; settings: directly or indirectly, via metabolic conversion
T1 sequence (P06401 1-933): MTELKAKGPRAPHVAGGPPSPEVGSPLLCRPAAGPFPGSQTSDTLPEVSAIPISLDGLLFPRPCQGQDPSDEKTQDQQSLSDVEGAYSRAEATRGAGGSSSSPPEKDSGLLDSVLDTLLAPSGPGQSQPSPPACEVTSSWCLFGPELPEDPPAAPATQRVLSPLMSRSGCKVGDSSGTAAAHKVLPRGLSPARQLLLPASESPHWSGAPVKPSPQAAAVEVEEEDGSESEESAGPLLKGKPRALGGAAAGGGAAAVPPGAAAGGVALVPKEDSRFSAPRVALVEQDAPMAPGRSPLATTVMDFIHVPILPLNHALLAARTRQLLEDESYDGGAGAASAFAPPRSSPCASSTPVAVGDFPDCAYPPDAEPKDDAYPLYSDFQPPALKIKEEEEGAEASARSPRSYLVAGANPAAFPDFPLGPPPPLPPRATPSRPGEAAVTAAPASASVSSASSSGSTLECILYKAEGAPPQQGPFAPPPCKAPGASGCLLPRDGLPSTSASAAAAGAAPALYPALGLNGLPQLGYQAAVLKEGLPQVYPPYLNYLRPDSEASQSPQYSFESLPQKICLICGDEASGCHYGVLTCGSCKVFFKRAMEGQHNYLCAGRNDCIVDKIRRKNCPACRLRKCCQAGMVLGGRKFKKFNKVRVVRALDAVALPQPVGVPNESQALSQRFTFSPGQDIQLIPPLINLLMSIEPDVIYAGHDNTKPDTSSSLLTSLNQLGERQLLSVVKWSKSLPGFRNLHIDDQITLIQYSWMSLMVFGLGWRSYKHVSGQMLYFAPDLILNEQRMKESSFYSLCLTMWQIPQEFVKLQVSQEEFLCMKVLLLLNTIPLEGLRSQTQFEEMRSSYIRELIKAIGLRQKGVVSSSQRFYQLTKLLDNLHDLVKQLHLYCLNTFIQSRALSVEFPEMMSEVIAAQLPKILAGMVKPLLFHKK
Excerpt: Ganaxolone (3α-hydroxy-3β-methyl-5α-pregnan-20-one) is a 3β-methylated synthetic analogue of the endogenous neurosteroid allopregnanolone with similar biological activity (Carter et al., (1997), The Journal of Pharmacology and Experimental Therapeutics, 280:1284-1295), but it is designed to not activate nuclear (classical) progesterone receptors.

[3] = Human plasma pharmacokinetics following oral administration; type: in vivo
Description: as §1

CYP3A4/5 = assay: Metabolism and effect of strong CYP inducers on ganaxolone clearance (in vitro data and human PK data)
[4] = Toxicology studies in animals focusing on prenatal and neonatal development; type: in vivo
Excerpt: (§2) Ganaxolone has been administered to infants with severe forms of epilepsy as early as 4 months of age. In clinical trials involving administration of ganaxolone over several weeks, the study drug has been tapered off over a 1 to 2-week period.

[5] = Clinical safety in the ganaxolone development program (placebo-controlled Phase 1, 2 and 3 studies); type: in vivo, human
Excerpt: In the completed placebo-controlled Phase 1, 2, and 3 studies, 0.32% of subjects who received ganaxolone and 0.46% of subjects who received placebo developed elevated LFTs during the study (>3×ULN AST and/or ALT). A subject participating in the ganaxolone paediatric epilepsy study developed liver failure, which was not considered to be related to ganaxolone. The subject was diagnosed with short bowel syndrome, liver steatosis and IgG-cholangitis, which were considered to be the causal factors for the subject's liver failure. There have been no other cases of Hy's Law or liver failure in the ganaxolone development program. […] After cessation of the dosing, plasma ganaxolone levels are expected to drop rapidly, but it is possible that low sub-therapeutic levels persist for several days as ganaxolone is slowly released from tissues.
as §2

CC(=O)[C@H]1CC[C@H]2[C@@H]3CC[C@H]4C[C@](C)(O)CC[C@]4(C)[C@H]3CC[C@]12C [ganaxolone, 3α-hydroxy-3β-methyl-5α-pregnan-20-one]
half-life [1]: approximately 20 hours | solubility ([2]; aqueous with cosolvent or surfactant or cyclodextrin, beta-sulfobutyl-cyclodextrin and 2-hydroxypropylbetacyclodextrin, read-out: concentration dissolved using water soluble beta cyclodextrins): > 1000 µg/mL | solubility in water ([2]; water): insoluble | activation of the progesterone receptor (progesterone receptor): does not activate | Tmax ([3]; human, in vivo): short | oral bioavailability ([3]; in contrast to allopregnanolone): orally bioavailable | metabolizing enzyme (CYP3A4/5; human, in vivo): metabolized by CYP3A4/5 | lowering in overall ganaxolone levels and exposure (CYP3A4/5; subjects taking strong CYP inducers (carbamazepine and phenytoin)): ~45% | prenatal and neonatal developmental toxicity [4]: have not demonstrated toxicities | withdrawal symptoms after cessation ([5]; clinical trials, several weeks of administration, tapered off over 1 to 2 weeks): no reports of withdrawal symptoms | subjects who developed elevated LFTs (>3×ULN AST and/or ALT) ([5]; completed placebo-controlled Phase 1, 2 and 3 studies): 0.32% | trends in ECG intervals, vital signs, physical or neurological examinations ([5]; development program overall): no clinically significant trends | excretion to breast milk ([5]; ganaxolone and its metabolites): excreted to breast milk | plasma concentration that can induce anesthesia ([5]; subject, intravenous administration): above 1000 ng/ml
